The source of these data is ChEMBL document CHEMBL1201862, “PubChem BioAssay data set” (2004).

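Values below derive from 48-hour exposures of cells grown in 96-well plates, with endpoints linearly interpolated between the two concentrations bracketing the appropriate inhibition level. GI50 = concentration required for 50% inhibition of growth.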 Activity calls are given as the source filed them. Rule as the data show it: active = GI50 up to about 1.1 µM and inactive = higher. Where a SMILES comes first, the peptide text is derived from it. The star is where a group is joined. Boc = CC(C)(C)OC(=O)*; nBu = CCCC*

Assay [1] has as its system BT-549. Kind of assay: NCI anticancer screen, dose series, 48 h.
Assay [2] concerns MDA-N. The assay is described as follows: NCI anticancer screen, dose series, 48 h.

On to `O=C(/C=C/c1cccs1)c1ccc(C(=O)/C=C/c2cccs2)cc1`, for which the GI50 in assay [1] is > 100 µM (inactive).
In the case of `COc1ccc(CCn2cnc3ccccc32)cc1`, the GI50 in assay [1] and in assay [2] was > 100 µM (inactive) in each case.
Turning to `CO/C=C(/C(=O)OC)[C@@H]1C[C@@H]1c1ccc2ccccc2c1`, the values for the GI50 in assay [1] and in assay [2] were 21.8 µM (inactive) and 20.4 µM (inactive), respectively.
The matching figures for `COc1ccc(C2=NN(C(=O)c3cccnc3)C(O)(c3cc(F)c(Cl)cc3Cl)C2)cc1OC` (configuration not stated): 19.3 µM (inactive) and 21.3 µM (inactive).
With `Clc1ccc(C(Cc2ccccc2)c2c(Cl)nc(N3CCNCC3)nc2Cl)cc1` (configuration not stated), the GI50 in assay [1] was 21.3 µM (inactive).
Take `CN(Cc1cnc2nc(N)nc(N)c2n1)c1ccc(C(=O)NC(CCC(=O)O)C(=O)O)cc1` (configuration not stated): the GI50 in assay [1] is 4.07 µM (inactive).
For `CCN1CCCCCCCCCC(=N/O)/C(=N\O)C1`, the GI50 in assay [1] and in assay [2] was > 100 µM (inactive) in each case.
Regarding `COCCOCCOCCOc1ccc(C(C#N)N(CCc2ccccc2)C(=O)c2cc(C(=O)N(CCc3ccccc3)C(C#N)c3ccc(OCCOCCOCCOC)cc3)cc(C(=O)N(CCc3ccccc3)C(C#N)c3ccc(OCCOCCOCCOC)cc3)c2)cc1` (configuration not stated), the GI50 in assay [1] and in assay [2] was > 100 µM (inactive) in each case.
With `COC(=O)C1(C)OC(C)=NC1(C(=O)OC)C(=O)OC` (configuration not stated), the GI50 in assay [1] was > 31.6 µM (inactive); in assay [2] it was > 100 µM (inactive).
With `C=C(CC[C@@H](C)[C@H]1CC[C@@]2(C)C3=C(CC[C@]12C)[C@@]1(C)CC[C@H](O)[C@@H](C)C1CC3)C(C)C` (some centres not stated), the GI50 in assay [1] is 1.48 µM (inactive); in assay [2], 1.17 µM (inactive).
Consider `O=C1C(S(=O)(=O)c2ccccc2)=C(CS(=O)(=O)c2ccccc2)[C@@H](OCc2ccccc2)[C@@H]1OCc1ccccc1`, for which the GI50 in assay [1] is 13.5 µM (inactive); in assay [2], 23 µM (inactive).
On to `NC(=O)C(=O)c1ncn(Cc2ccccc2)c1N`, for which, in assay [2], the GI50 was > 100 µM (inactive).
In the case of `C/C(=C1\C(=O)C(c2ccccc2)N(c2ccccc2)C1=O)c1ccc(Cl)cc1` (configuration not stated), the GI50 in assay [1] is 19.8 µM (inactive); in assay [2], 19.7 µM (inactive).
In the case of `OC1=C(c2ccccc2)C2=NCCN2c2ccccc21`, the results for the GI50 in assay [1] and in assay [2] were 95.7 µM (inactive) and 41.2 µM (inactive), respectively.
The matching figures for `CC(C)(C)OC(=O)N1CCCC1C(=O)NC(c1ccccc1)c1ccccc1` (configuration not stated): > 100 µM (inactive) and > 100 µM (inactive).
Regarding `CC(C)C1=CC23CCC4C(C)(C(=O)O)CCCC4(C)C2CC1C1C(=O)N(CCCCCCN2C(=O)C4C5CC6C7(C)CCCC(C)(C(=O)O)C7CCC6(C=C5C(C)C)C4C2=O)C(=O)C13` (configuration not stated), the GI50 in assay [2] is 11.1 µM (inactive).
For the compound `COc1ccc(CC2Cc3ccccc3CCN2)cc1OC` (configuration not stated), the GI50 in assay [1] and in assay [2] was > 50 µM (inactive) each time.
With `COC1C(O)C(C)OC(O[C@@H]2C[C@H]3CC[C@@H]4[C@H](CC[C@]5(C)[C@@H](C6=CC(=O)OC6)CC[C@]45O)[C@@]3(C)[C@H](O)C2)C1O` (some centres not stated), the GI50 is < 0.0246 µM (active) in assay [1] and 0.0166 µM (active) in assay [2].
As to `CC1C(c2ccc(N(C)C)cc2)c2cc3c(cc2OC1N1CCCC1)OCO3` (configuration not stated), the GI50 is 38.2 µM (inactive) in assay [1] and 14.6 µM (inactive) in assay [2].
With `CCN1CCN(c2nc3ccccc3nc2C(=O)c2ccc(OC)c(OC)c2)CC1`, the GI50 in assay [1] was 21.2 µM (inactive); in assay [2], 25.4 µM (inactive).
The matching figures for `CC(=O)C1C(=O)C(=O)N(c2ccc(Cl)c(Cl)c2)C1=O` (configuration not stated): > 100 µM (inactive) and > 100 µM (inactive).
Consider `COC(=O)CCc1ccc2c(c1)[C@H](C(=O)OC)[C@@H](c1ccc(O)cc1)O2`, for which the GI50 in assay [1] was 74.5 µM (inactive); in assay [2], > 100 µM (inactive).
In the case of `CCCCCC(=O)OCC1(CO)C/C(=C\CC(C(C)C)C(C)C)C(=O)O1` (configuration not stated), the GI50 in assay [1] and in assay [2] was > 100 µM (inactive) each time.
As to `Cc1ccc(SCC(CF)OC(C)n2cnc3c(O)nc(N)nc32)cc1` (configuration not stated), the GI50 in assay [1] was 19.8 µM (inactive); in assay [2], > 100 µM (inactive).
Take `CCN(CC)Cc1sc2nc3ccccc3n2c1-c1ccc(OC)cc1`: the figures for the GI50 in assay [1] and in assay [2] were 32.7 µM (inactive) and 2.61 µM (inactive), respectively.
Consider `COc1ccc(C(=O)Oc2c(C#N)sc3c2c(=O)n(-c2ccccc2)c(=S)n3-c2ccccc2)cc1`, for which the GI50 in assay [2] is > 10 µM (inactive).
Take `c1ccc2c(CSCc3cccc4ccccc34)cccc2c1`: the GI50 in assay [1] and in assay [2] was > 100 µM (inactive) each time.
For the compound `C[Si](C)(OCCS(=O)(=O)O)C1S(=O)(=O)OCCOS1(=O)=O`, the GI50 in assay [1] was 27.4 µM (inactive); in assay [2], 92 µM (inactive).
Take `COC(=O)Nc1nc2ccc(S(=O)(=O)SC)cc2[nH]1`: in assay [1], the GI50 was 10.1 µM (inactive).
In the case of `C1=CN2C[n+]3ccc4ccccc4c3N=C2c2ccccc21`, the GI50 in assay [1] is 7.98 µM (inactive); in assay [2], 2.26 µM (inactive).
`OCCN(CCO)c1ncnc2[nH]cnc12`: the GI50 in assay [1] and in assay [2] was > 100 µM (inactive) in each case.
As to `CC1(C)OCC(C2OC3OC(C)(C)OC3C2c2ccccc2)O1` (configuration not stated), the GI50 in assay [2] is 37 µM (inactive).
In the case of `CC(=O)On1c(-c2ccccc2-c2nc3ccccc3n2OC(C)=O)nc2ccccc21`, the GI50 is 30.3 µM (inactive) in assay [1] and 21 µM (inactive) in assay [2].
For the compound `COC(=O)/C=C/c1cnc2c(c1)oc(=O)n2CCc1ccccn1`, the GI50 is 42.8 µM (inactive) in assay [1] and 23.8 µM (inactive) in assay [2].
The matching figures for `CN(NC(=O)c1ccc(Cl)cc1)C1=NCCCCN1`: > 100 µM (inactive) and > 100 µM (inactive).
For the compound `CO[C@@]12C[C@@H](C)C3=CCC(C)=C3CC1=C(C)C(=O)O2`, the GI50 in assay [1] is > 100 µM (inactive).
Turning to `CC(C)(C)c1ccc(OCCOc2ccc(C(C)(C)C)cc2NC=O)c(NC=O)c1`, the values for the GI50 in assay [1] and in assay [2] were 15.6 µM (inactive) and 9.12 µM (inactive), respectively.
Regarding `COCCOCCOC1=C(Cl)C(=O)c2c(O)ccc(O)c2C1=O`, the GI50 was 2.15 µM (inactive) in assay [1] and 5.02 µM (inactive) in assay [2].
Turning to `COC(=O)[C@@H](Nc1ccccc1)[C@@]1(C(=O)OC)SC12c1ccccc1-c1ccccc12`, the results for the GI50 in assay [1] and in assay [2] were 75.5 µM (inactive) and 61.1 µM (inactive), respectively.
`CCCCOc1ccc(CC(NC(=O)OC(C)(C)C)C(=O)NC(C)C(=O)NC(Cc2ccccc2)C(=O)NCC(N)=O)cc1` (configuration not stated) (Boc-Y(nBu)AFG-NH2; configuration not given here): the GI50 was > 100 µM (inactive) in assay [1] and 61.9 µM (inactive) in assay [2].
The matching figures for `CN1CCC[N+](C)=C1c1ccccc1`: > 100 µM (inactive) and > 100 µM (inactive).
The matching figures for `CC(=O)Oc1ccccc1/C=C/C(=O)/C=C/c1ccccc1OC(C)=O`: 1.73 µM (inactive) and 1.91 µM (inactive).
Consider `NC(=O)Cc1nc2c(N)ncnc2n1C1OC(CO)C(O)C1O` (configuration not stated), for which the GI50 in assay [1] and in assay [2] was > 100 µM (inactive) in each case.
Turning to `O=c1[nH]nc(Cc2ccccc2)n1/N=C/c1ccc([N+](=O)[O-])cc1`, the GI50 in assay [1] and in assay [2] was > 100 µM (inactive) each time.
For `CC1CCCN1CCCOC(=O)c1ccc(OC2C=CCCC2)cc1` (configuration not stated), the GI50 in assay [1] is 40.6 µM (inactive); in assay [2], 39.5 µM (inactive).
For `CC1(C)Oc2ccc3c(=O)cc(-c4ccc(F)cc4)oc3c2C1C(=O)O` (configuration not stated), the GI50 in assay [2] is > 100 µM (inactive).
